Organism: Homo sapiens
Assay: Compound was evaluated for inhibition of ex vivo ADP mediated platelet aggregation of human gel filtered platelets
Format: functional

IC50 [nM] | SMILES
13 | O=C(NC[C@H](NS(=O)(=O)c1cccnc1)C(=O)O)c1cc2c(s1)CCN(CCC1CCNCC1)C2=O
8 | CCCCS(=O)(=O)N[C@@H](CNC(=O)c1cc2c(s1)CCN(CCC1CCNCC1)C2=O)C(=O)O
260 | O=C(O)CCCC(=O)c1cc2c(s1)CCN(CCC1CCNCC1)C2=O
150 | O=C(O)CCNC(=O)c1cc2c(s1)CCN(CCC1CCNCC1)C2=O
25 | O=C(O)CCNC(=O)c1ccc2c(c1)C(=O)N(CCC1CCNCC1)C2
220 | C[C@H](CC(=O)O)NC(=O)c1cc2c(s1)CCN(CCC1CCNCC1)C2=O
7 | O=C(NC[C@H](NS(=O)(=O)c1ccccc1)C(=O)O)c1cc2c(s1)CCN(CCC1CCNCC1)C2=O
33000 | CCCCS(=O)(=O)N[C@@H](CNC(=O)c1csc2c1C(=O)N(CCC1CCNCC1)CC2)C(=O)O
25 | O=C(NCc1ccccc1)N[C@@H](CNC(=O)c1cc2c(s1)CCN(CCC1CCNCC1)C2=O)C(=O)O

From ChEMBL document CHEMBL1128934, “Nonpeptide glycoprotein IIB/IIIA inhibitors. 12. Potent and orally active centrally constrained thieno[2,3-c]pyridones” (Bioorg Med Chem Lett, 1996)
